# Compound: CN1CCN(CC1)C2=CC(=C(C=C2)NC3=NC=C4C(=N3)N(C5=CC=CC=C5C(=O)N4C)C)OC [XMD8-85] + COc1cc2c(Oc3ccc(NC(=O)C4(C(=O)Nc5ccc(F)cc5)CC4)cc3F)ccnc2cc1OCCCN1CCOCC1 [Foretinib] (partner 0.25 µM)
# Test: relative viability (nuclei count vs DMSO), 5 days (fraction); higher = more cells survive
# Conditions: first compound 0.08 µM
# Outline: (§1)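 Values are medians from duplicate plates. Each reflects relative viability, defined as the nuclei count of treated wells over that of vehicle wells. Lung cancer cell lines in 1536-well plates were pin-tool dosed one day after seeding with one drug alone or with a fixed anchor-drug dose plus five library-drug doses (not always all listed) in √10 steps, then fixed, stained and imaged at 4× after 5 days.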
row,Cell Line,relative viability
1,A549,1.02
2,COR-L23,1.02
3,COR-L 105,1.21
4,Calu-6,0.858
5,ChaGo-K-1,0.823
6,EBC-1,0.104
7,IA-LM,1.07
8,NCI-H520,0.798
9,NCI-H661,1.16
10,NCI-H1299,1.13
11,NCI-H1563,1.05
12,NCI-H1623,0.986
13,NCI-H1650,1.12
14,NCI-H2009,1.24
15,NCI-H2023,0.865
16,NCI-H2228,0.88
17,NCI-H2342,0.993
18,SK-LU-1,0.845
19,SK-MES-1,0.888
20,SW 1573,0.876
21,UMC-11,1.17

# Same assay, conditions: first compound 0.253 µM
row,Cell Line,relative viability
1,A549,0.869
2,COR-L23,1.05
3,COR-L 105,1.14
4,Calu-6,0.948
5,ChaGo-K-1,1.01
6,EBC-1,0.0951
7,IA-LM,1.11
8,NCI-H520,0.729
9,NCI-H661,1.09
10,NCI-H1299,1.1
11,NCI-H1563,0.935
12,NCI-H1623,0.816
13,NCI-H1650,1.19
14,NCI-H2009,1.25
15,NCI-H2023,0.804
16,NCI-H2228,0.758
17,NCI-H2342,0.938
18,SK-LU-1,0.825
19,SK-MES-1,0.712
20,SW 1573,0.884
21,UMC-11,0.949

# Same assay, conditions: first compound 0.8 µM
row,Cell Line,relative viability
1,A549,1.11
2,COR-L23,1.06
3,COR-L 105,1.08
4,Calu-6,0.879
5,ChaGo-K-1,0.93
6,EBC-1,0.112
7,IA-LM,1.24
8,NCI-H520,0.895
9,NCI-H661,0.989
10,NCI-H1299,1.1
11,NCI-H1563,0.836
12,NCI-H1623,0.789
13,NCI-H1650,1.17
14,NCI-H2009,1.23
15,NCI-H2023,0.961
16,NCI-H2228,0.789
17,NCI-H2342,1.15
18,SK-LU-1,0.841
19,SK-MES-1,0.875
20,SW 1573,0.854
21,UMC-11,1.21

# Same assay, conditions: first compound 2.53 µM
row,Cell Line,relative viability
1,A549,1.05
2,COR-L23,0.998
3,COR-L 105,0.672
4,Calu-6,0.804
5,ChaGo-K-1,0.867
6,EBC-1,0.0978
7,IA-LM,0.964
8,NCI-H520,0.741
9,NCI-H661,1.07
10,NCI-H1299,1.11
11,NCI-H1563,0.892
12,NCI-H1623,0.857
13,NCI-H1650,0.863
14,NCI-H2009,1.08
15,NCI-H2023,0.699
16,NCI-H2228,0.816
17,NCI-H2342,0.971
18,SK-LU-1,0.772
19,SK-MES-1,1
20,SW 1573,1
21,UMC-11,0.913

# Same assay, conditions: first compound 8 µM
row,Cell Line,relative viability
1,A549,0.913
2,COR-L23,0.773
3,COR-L 105,0.387
4,Calu-6,0.674
5,ChaGo-K-1,0.774
6,EBC-1,0.0972
7,IA-LM,0.292
8,NCI-H520,0.484
9,NCI-H661,0.91
10,NCI-H1299,0.86
11,NCI-H1563,0.767
12,NCI-H1623,0.667
13,NCI-H1650,0.32
14,NCI-H2009,0.516
15,NCI-H2023,0.391
16,NCI-H2228,0.423
17,NCI-H2342,0.946
18,SK-LU-1,0.674
19,SK-MES-1,0.57
20,SW 1573,0.762
21,UMC-11,0.651

# Compound: CN1CCN(CC1)C2=CC(=C(C=C2)NC3=NC=C4C(=N3)N(C5=CC=CC=C5C(=O)N4C)C)OC [XMD8-85] + Cc1cc(Nc2cc(N3CCN(C)CC3)nc(Sc3ccc(NC(=O)C4CC4)cc3)n2)n[nH]1 [Tozasertib] (partner 0.1 µM)
# Test: as above
# Conditions: first compound 0.08 µM
# Outline: as §1
row,Cell Line,relative viability
1,COR-L23,0.222
2,COR-L 105,0.405
3,ChaGo-K-1,0.225
4,NCI-H520,0.388
5,NCI-H522,0.557
6,NCI-H661,0.383
7,NCI-H1623,0.495
8,NCI-H1648,0.438
9,NCI-H1650,0.358
10,NCI-H2009,0.727
11,NCI-H2023,0.266
12,NCI-H2228,0.194
13,NCI-H2342,0.529
14,SK-LU-1,0.278
15,SK-MES-1,0.998
16,SW 1573,0.222
17,UMC-11,0.251

# Same assay, conditions: first compound 0.253 µM
row,Cell Line,relative viability
1,COR-L23,0.216
2,COR-L 105,0.363
3,ChaGo-K-1,0.233
4,NCI-H520,0.414
5,NCI-H522,0.562
6,NCI-H661,0.346
7,NCI-H1623,0.336
8,NCI-H1648,0.394
9,NCI-H1650,0.409
10,NCI-H2009,0.696
11,NCI-H2023,0.355
12,NCI-H2228,0.261
13,NCI-H2342,0.46
14,SK-LU-1,0.328
15,SK-MES-1,0.939
16,SW 1573,0.197
17,UMC-11,0.209

# Same assay, conditions: first compound 0.8 µM
row,Cell Line,relative viability
1,COR-L23,0.197
2,COR-L 105,0.338
3,ChaGo-K-1,0.207
4,NCI-H520,0.44
5,NCI-H522,0.41
6,NCI-H661,0.366
7,NCI-H1623,0.41
8,NCI-H1650,0.413
9,NCI-H2009,0.703
10,NCI-H2023,0.432
11,NCI-H2228,0.267
12,NCI-H2342,0.478
13,SK-LU-1,0.276
14,SW 1573,0.175
15,UMC-11,0.233

# Same assay, conditions: first compound 2.53 µM
row,Cell Line,relative viability
1,COR-L23,0.163
2,COR-L 105,0.377
3,ChaGo-K-1,0.196
4,NCI-H520,0.406
5,NCI-H522,0.519
6,NCI-H661,0.353
7,NCI-H1623,0.421
8,NCI-H1650,0.216
9,NCI-H2009,0.416
10,NCI-H2023,0.335
11,NCI-H2228,0.207
12,NCI-H2342,0.424
13,SK-LU-1,0.294
14,SK-MES-1,0.81
15,SW 1573,0.174
16,UMC-11,0.248

# Same assay, conditions: first compound 8 µM
row,Cell Line,relative viability
1,COR-L23,0.144
2,COR-L 105,0.26
3,ChaGo-K-1,0.144
4,NCI-H520,0.341
5,NCI-H522,0.467
6,NCI-H661,0.392
7,NCI-H1623,0.367
8,NCI-H1648,0.324
9,NCI-H1650,0.177
10,NCI-H2009,0.308
11,NCI-H2023,0.163
12,NCI-H2228,0.197
13,NCI-H2342,0.405
14,SK-LU-1,0.185
15,SK-MES-1,0.276
16,SW 1573,0.156
17,UMC-11,0.197

# Compound: CN1CCN(CC1)C2=CC(=C(C=C2)NC3=NC=C4C(=N3)N(C5=CC=CC=C5C(=O)N4C)C)OC [XMD8-85] + NC(=O)Nc1cc(-c2cccc(F)c2)sc1C(=O)N[C@H]1CCCNC1 [AZD7762] (partner 0.2 µM)
# Test: as above
# Conditions: first compound 0.08 µM
# Outline: as §1
row,Cell Line,relative viability
1,ChaGo-K-1,0.825
2,NCI-H522,0.697
3,NCI-H1648,0.483
4,NCI-H2342,0.509

# Same assay, conditions: first compound 0.253 µM
row,Cell Line,relative viability
1,ChaGo-K-1,0.883
2,NCI-H522,0.851
3,NCI-H1648,0.572
4,NCI-H2342,0.478

# Same assay, conditions: first compound 0.8 µM
row,Cell Line,relative viability
1,ChaGo-K-1,0.855
2,NCI-H522,0.798
3,NCI-H1648,0.587
4,NCI-H2342,0.552

# Same assay, conditions: first compound 2.53 µM
row,Cell Line,relative viability
1,ChaGo-K-1,0.903
2,NCI-H522,0.859
3,NCI-H1648,0.717
4,NCI-H2342,0.511

# Same assay, conditions: first compound 8 µM
row,Cell Line,relative viability
1,ChaGo-K-1,0.91
2,NCI-H522,0.69
3,NCI-H1648,0.726
4,NCI-H2342,0.488

# Compound: O=C(O)C(Cc1ccccc1[N+](=O)[O-])=NNc1nc(-c2ccc(Cl)c(Cl)c2)cs1 (mixture of isomers) [4EGI-1] + Cc1nc(NC(=O)N2CCC[C@H]2C(N)=O)sc1-c1ccnc(C(C)(C)C(F)(F)F)c1 [Alpelisib] (partner 2 µM)
# Test: as above
# Conditions: first compound 0.5 µM
# Outline: as §1
row,Cell Line,relative viability
1,A549,0.801
2,COR-L23,0.873
3,COR-L 105,1.2
4,Calu-6,1.08
5,EBC-1,0.947
6,IA-LM,0.916
7,NCI-H520,0.918
8,NCI-H661,0.82
9,NCI-H1299,1.03
10,NCI-H1563,0.998
11,NCI-H2009,1.16
12,NCI-H2023,0.578
13,NCI-H2228,0.664
14,SK-LU-1,1.23
15,SK-MES-1,0.968
16,SW 1573,1.1
17,UMC-11,1.06

# Same assay, conditions: first compound 1.581 µM
row,Cell Line,relative viability
1,A549,0.479
2,COR-L23,0.509
3,COR-L 105,0.818
4,Calu-6,0.493
5,EBC-1,0.876
6,IA-LM,0.647
7,NCI-H520,0.754
8,NCI-H661,0.446
9,NCI-H1299,1.08
10,NCI-H1563,0.884
11,NCI-H2009,1.14
12,NCI-H2228,0.672
13,SK-LU-1,1.01
14,SK-MES-1,0.735
15,SW 1573,0.644
16,UMC-11,1.03

# Same assay, conditions: first compound 5 µM
row,Cell Line,relative viability
1,A549,0.984
2,COR-L23,0.885
3,COR-L 105,1.04
4,Calu-6,1.21
5,EBC-1,1.08
6,IA-LM,0.586
7,NCI-H520,1.02
8,NCI-H661,1.26
9,NCI-H1299,0.989
10,NCI-H1563,0.983
11,NCI-H2009,1.25
12,NCI-H2023,0.582
13,NCI-H2228,0.82
14,SK-LU-1,1.26
15,SK-MES-1,0.911
16,SW 1573,0.879
17,UMC-11,1.12

# Same assay, conditions: first compound 15.81 µM
row,Cell Line,relative viability
1,A549,0.611
2,COR-L23,0.562
3,COR-L 105,0.89
4,Calu-6,0.933
5,EBC-1,0.477
6,IA-LM,0.149
7,NCI-H520,0.866
8,NCI-H661,0.535
9,NCI-H1299,0.955
10,NCI-H1563,0.906
11,NCI-H2009,1.07
12,NCI-H2023,0.41
13,NCI-H2228,0.61
14,SK-LU-1,0.806
15,SK-MES-1,0.773
16,SW 1573,0.785
17,UMC-11,0.898

# Same assay, conditions: first compound 50 µM
row,Cell Line,relative viability
1,A549,0.273
2,COR-L23,0.112
3,COR-L 105,0.599
4,Calu-6,0.375
5,EBC-1,0.273
6,IA-LM,0.0833
7,NCI-H520,0.543
8,NCI-H661,0.229
9,NCI-H1299,1.04
10,NCI-H1563,0.697
11,NCI-H2009,0.585
12,NCI-H2023,0.264
13,NCI-H2228,0.177
14,SK-LU-1,0.232
15,SK-MES-1,0.827
16,SW 1573,0.663
17,UMC-11,0.306
